Assay results: BindingDB's records for doi:10.1016/j.bmcl.2005.10.040 (Huazhong University of Science and Technology, 2005)

Key:
[1] = target: 4-aminobutyrate aminotransferase, mitochondrial (Homo sapiens, UniProt P80404); experiment: Inhibitory activity against GABAT
[2] = target: T1, Succinate-semialdehyde dehydrogenase, mitochondrial (Homo sapiens, UniProt P51649); experiment: Inhibitory activity against SSADH
T1 sequence (P51649 whole entry): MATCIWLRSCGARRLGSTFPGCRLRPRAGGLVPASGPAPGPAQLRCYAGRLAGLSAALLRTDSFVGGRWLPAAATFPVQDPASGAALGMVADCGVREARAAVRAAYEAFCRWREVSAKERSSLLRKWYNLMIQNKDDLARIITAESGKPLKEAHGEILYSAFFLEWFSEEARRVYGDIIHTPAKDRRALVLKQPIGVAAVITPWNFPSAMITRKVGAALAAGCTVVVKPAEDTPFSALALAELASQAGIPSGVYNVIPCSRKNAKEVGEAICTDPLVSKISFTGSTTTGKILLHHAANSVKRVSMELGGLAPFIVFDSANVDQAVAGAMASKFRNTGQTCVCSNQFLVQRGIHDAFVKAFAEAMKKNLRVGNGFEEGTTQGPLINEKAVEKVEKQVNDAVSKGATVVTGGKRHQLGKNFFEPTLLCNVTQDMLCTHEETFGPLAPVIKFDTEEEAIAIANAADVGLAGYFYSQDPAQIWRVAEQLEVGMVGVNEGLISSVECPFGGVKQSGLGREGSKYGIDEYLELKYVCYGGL

4-aminobutyrate aminotransferase, mitochondrial, sequence (P80404 whole entry): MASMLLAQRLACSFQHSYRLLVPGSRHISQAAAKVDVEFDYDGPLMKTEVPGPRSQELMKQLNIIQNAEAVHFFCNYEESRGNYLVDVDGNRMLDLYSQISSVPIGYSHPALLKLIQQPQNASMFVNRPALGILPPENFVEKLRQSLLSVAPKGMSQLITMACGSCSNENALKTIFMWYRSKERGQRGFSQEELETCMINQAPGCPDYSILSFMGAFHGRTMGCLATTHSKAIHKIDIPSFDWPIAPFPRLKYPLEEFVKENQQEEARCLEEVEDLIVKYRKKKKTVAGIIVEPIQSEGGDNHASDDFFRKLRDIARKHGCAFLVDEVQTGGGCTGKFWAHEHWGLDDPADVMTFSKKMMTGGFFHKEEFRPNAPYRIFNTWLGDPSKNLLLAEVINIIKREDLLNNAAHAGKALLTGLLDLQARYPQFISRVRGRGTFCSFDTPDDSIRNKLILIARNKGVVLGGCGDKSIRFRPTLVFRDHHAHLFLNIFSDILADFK

IC50 [1] [µM]	IC50 [2] [µM]	SMILES
> 1000	> 1000	O=NCc1ccc(O)cc1 [4-hydroxybenzaldehyde oxime]
> 1000	> 1000	COc1cc(CN=O)ccc1O [4-hydroxy-3-methoxybenzaldehyde oxime]
